Laboratory results: PMC6364417, “Kinase inhibitor library screening identifies synergistic drug combinations effective in sensitive and resistant melanoma cells” (Journal of Experimental & Clinical Cancer Research : CR, 2019)
Like-named read-outs stand apart in the source and are kept apart here.

Key:
A375 cells (parental) [1] = experiment: Dose-response curves and IC50, PrestoBlue cell viability, 72 h; format: cell-based, human; conditions: read-out: Half-maximal inhibitory concentration value (IC50), Mean
[2] = system: A375-GP cells (Dabrafenib-resistant); experiment: as above; format: cell-based, human; conditions: n.e. = did not suppress growth below 50% in the tested concentration range, read-out: Half-maximal inhibitory concentration value (IC50), Mean
[3] = system: A375-XP cells (Vemurafenib-resistant); experiment: as above; format: cell-based, human; conditions: n.e. = did not suppress growth below 50% in the tested concentration range, read-out: Half-maximal inhibitory concentration value (IC50), Mean
[4] = system: IGR37-GP cells (Dabrafenib-resistant); experiment: Kinase inhibitor library screening, PrestoBlue cell viability, 1 or 10 μM, 72 h; conditions: IGR37 GP, 72 h
[5] = system: A375-XP cells (Vemurafenib-resistant); experiment: as above; conditions: A375 XP, 72 h
IGR37 cells (parental) = experiment: as above; conditions: IGR37 Parental, 72 h
[6] = system: 501Mel-XP cells (Vemurafenib-resistant); experiment: as above; conditions: 501Mel XP, 72 h
[7] = system: 501Mel-GP cells (Dabrafenib-resistant); experiment: as above; conditions: 501Mel GP, 72 h
501Mel cells (parental) = experiment: as above; conditions: 501Mel Parental, 72 h
Method in brief: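 Two concentrations of every kinase inhibitor were tested on each melanoma line and its resistant counterparts, and cell survival was quantified by PrestoBlue against untreated wells.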

[8] = system: A375-GP cells (Dabrafenib-resistant); experiment: as above; conditions: A375 GP, 72 h
[9] = system: IGR37-XP cells (Vemurafenib-resistant); experiment: as above; conditions: IGR37 XP, 72 h
A375 cells (parental) [10] = experiment: as above; conditions: A375 Parental, 72 h
[11] = n.e. = did not suppress growth below 50% in the tested concentration range
[12] = Homo sapiens, A-375, n.e. = did not suppress growth below 50% in the tested concentration range

Row | Compound | IC50 (A375 cells (parental) [1]; [11]) | IC50 [2] | IC50 [3] | IC50 (A375 cells (parental) [1]; [12]) | IC50 ([2]; Homo sapiens) | IC50 ([3]; Homo sapiens) | cell viability (kinase inhibitor library screening) ([4]; 1μΜ) | cell viability (kinase inhibitor library screening) ([4]; 10μΜ) | cell viability (kinase inhibitor library screening) ([5]; 1μΜ) | cell viability (kinase inhibitor library screening) ([5]; 10μΜ) | cell viability (kinase inhibitor library screening) (IGR37 cells (parental); 1μΜ) | cell viability (kinase inhibitor library screening) (IGR37 cells (parental); 10μΜ) | cell viability (kinase inhibitor library screening) ([6]; 1μΜ) | cell viability (kinase inhibitor library screening) ([6]; 10μΜ) | cell viability (kinase inhibitor library screening) ([7]; 10μΜ) | cell viability (kinase inhibitor library screening) (501Mel cells (parental); 1μΜ) | cell viability (kinase inhibitor library screening) (501Mel cells (parental); 10μΜ) | cell viability (kinase inhibitor library screening) ([8]; 1μΜ) | cell viability (kinase inhibitor library screening) ([8]; 10μΜ) | cell viability (kinase inhibitor library screening) ([9]; 1μΜ) | other results
1 | CNC(=O)c1c(F)cccc1Nc1nc(Nc2cc3c(cc2OC)CCN3C(=O)CN(C)C)nc2[nH]ccc12 [GSK1838705A, reference compound] | 1.2 µM | 0.969 µM | 0.769 µM |  |  |  |  |  |  |  |  |  |  |  |  |  |  |  |  |  | cell viability, IGR37 GP, 10μΜ ([4]; 10μΜ): 2%; cell viability, IGR37 GP, 1μΜ ([4]; 1μΜ, in %): 73.7; cell viability, A375 XP, 1μΜ ([5]; 1μΜ, in %): 70.8; cell viability, A375 XP, 10μΜ ([5]; 10μΜ, in %): 11.1; cell viability, IGR37 Parental, 1μΜ (IGR37 cells (parental); 1μΜ, in %): 92.2; cell viability, IGR37 Parental, 10μΜ (IGR37 cells (parental); 10μΜ, in %): 1.2; cell viability, 501Mel XP, 1μΜ ([6]; 1μΜ, in %): 70.4; cell viability, 501Mel XP, 10μΜ ([6]; 10μΜ, in %): -0.3; cell viability, 501Mel GP, 1μΜ ([7]; 1μΜ, in %): 75.8; cell viability, 501Mel GP, 10μΜ ([7]; 10μΜ, in %): -0.19; cell viability, 501Mel Parental, 1μΜ (501Mel cells (parental); 1μΜ, in %): 73.7; cell viability, 501Mel Parental, 10μΜ (501Mel cells (parental); 10μΜ, in %): 0.4; cell viability, A375 GP, 1μΜ ([8]; 1μΜ, in %): 67.8; cell viability, A375 GP, 10μΜ ([8]; 10μΜ, in %): 10.4; cell viability, IGR37 XP, 10μΜ ([9]; 10μΜ): 1%; cell viability, IGR37 XP, 1μΜ ([9]; 1μΜ, in %): 42.8; cell viability, A375 Parental, 1μΜ (A375 cells (parental) [10]; 1μΜ, in %): 68.1; cell viability, A375 Parental, 10μΜ (A375 cells (parental) [10]; 10μΜ, in %): 12.8
2 | COc1ccc(-c2cc3c(C)nc(N)nc3n([C@H]3CC[C@H](OCCO)CC3)c2=O)cn1 [PF-04691502, reference compound] | 0.298 µM | 0.254 µM | 0.191 µM |  |  |  |  |  |  |  |  |  |  |  |  |  |  |  |  |  | Cell viability in kinase inhibitor library screening, IGR37 GP, 10μΜ ([4]; 10μΜ): 7.5%; Cell viability in kinase inhibitor library screening, IGR37 GP, 1μΜ ([4]; 1μΜ, in %): 50.6; Cell viability in kinase inhibitor library screening, A375 XP, 1μΜ ([5]; 1μΜ): 18.5; Cell viability in kinase inhibitor library screening, A375 XP, 10μΜ ([5]; 10μΜ): 3.3; Cell viability in kinase inhibitor library screening, IGR37 Parental, 1μΜ (IGR37 cells (parental); 1μΜ, in %): 38.6; Cell viability in kinase inhibitor library screening, IGR37 Parental, 10μΜ (IGR37 cells (parental); 10μΜ, in %): 5.0; Cell viability in kinase inhibitor library screening, 501Mel XP, 1μΜ ([6]; 1μΜ, in %): 10.0; Cell viability in kinase inhibitor library screening, 501Mel XP, 10μΜ ([6]; 10μΜ, in %): -0.224; Cell viability in kinase inhibitor library screening, 501Mel GP, 1μΜ ([7]; 1μΜ, in %): 14.9; Cell viability in kinase inhibitor library screening, 501Mel GP, 10μΜ ([7]; 10μΜ, in %): 0.379; Cell viability in kinase inhibitor library screening, 501Mel Parental, 1μΜ (501Mel cells (parental); 1μΜ, in %): 21.9; Cell viability in kinase inhibitor library screening, 501Mel Parental, 10μΜ (501Mel cells (parental); 10μΜ, in %): 0.8; Cell viability in kinase inhibitor library screening, A375 GP, 1μΜ ([8]; 1μΜ): 22.6; Cell viability in kinase inhibitor library screening, A375 GP, 10μΜ ([8]; 10μΜ): 3.9; Cell viability in kinase inhibitor library screening, IGR37 XP, 10μΜ ([9]; 10μΜ): 3.2%; Cell viability in kinase inhibitor library screening, IGR37 XP, 1μΜ ([9]; 1μΜ, in %): 22.1; Cell viability in kinase inhibitor library screening, A375 Parental, 10μΜ (A375 cells (parental) [10]; 10μΜ): 2.9; Cell viability in kinase inhibitor library screening, A375 Parental, 1μΜ (A375 cells (parental) [10]; 1μΜ): 25.2
3 | CC(C)CC(=O)Nc1[nH]nc2c1CN(C(=O)C1CCN(C)CC1)C2(C)C [PHA-793887, reference compound] |  |  |  | 0.578 µM | 0.72 µM | 1.05 µM | 96.5% | 23.5% | 60.1% | 10.2% | 100.2% | 41.8% | 88.3% | 13.3% | 25.0% | 90.8% | 20.0% | 52.2% | 4.2% | 87.3% | cell viability (kinase inhibitor library screening) ([9]; 10μΜ): 5.3%; cell viability (kinase inhibitor library screening) (A375 cells (parental) [10]; 10μΜ): 8.5%; cell viability (kinase inhibitor library screening) (A375 cells (parental) [10]; 1μΜ): 47.0%
4 | Nc1ncnc2c1c(-c1cnc3[nH]ccc3c1)nn2C1CCCC1 [PP-121, reference compound] | 0.55 µM | 0.417 µM | 0.648 µM |  |  |  | 69.2% | 9.1% | 37.9% | 4.5% | 75.3% | 14.0% | 51.0% | 2.4% | 5.9% | 55.7% | 3.0% | 36.1% | 8.1% | 60.1% | cell viability (kinase inhibitor library screening) ([7]; 1μΜ): 44.0%; cell viability (kinase inhibitor library screening) ([9]; 10μΜ): 4.3%; cell viability (kinase inhibitor library screening) (A375 cells (parental) [10]; 10μΜ): 6.5%; cell viability (kinase inhibitor library screening) (A375 cells (parental) [10]; 1μΜ): 45.3%
5 | CC(=O)c1c(C)c2cnc(Nc3ccc(N4CCNCC4)cn3)nc2n(C2CCCC2)c1=O [Palbociclib] |  |  |  | 5.32 µM | 2.21 µM | 4.99 µM |  |  |  |  |  |  |  |  |  |  |  |  |  |  | 
6 | CNC(=O)c1cc(Oc2ccc(NC(=O)Nc3ccc(Cl)c(C(F)(F)F)c3)c(F)c2)ccn1 [Regorafenib] |  |  |  | 2.73 µM | 0.701 µM | 1.71 µM |  |  |  |  |  |  |  |  |  |  |  |  |  |  | 
7 | CCS(=O)(=O)c1cccc(-c2cc(C(=O)NC3CCN(C)CC3)c(C)c3[nH]c4ncc(C)cc4c23)c1 [TAK-901, reference compound] |  |  |  | 0.398 µM | 0.338 µM | 0.472 µM | 97.2% | 9.5% | 52.1% | 9.6% | 93.0% | 30.2% | 83.2% | 25.7% | 29.0% | 82.7% | 12.7% | 41.6% | 8.5% | 73.0% | cell viability (kinase inhibitor library screening) ([7]; 1μΜ): 88.7%; cell viability (kinase inhibitor library screening) ([9]; 10μΜ): 4.0%; cell viability (kinase inhibitor library screening) (A375 cells (parental) [10]; 10μΜ): 7.6%; cell viability (kinase inhibitor library screening) (A375 cells (parental) [10]; 1μΜ): 45.8%
